Laboratory results from patent publication US20120076899A1, “SHELF STABLE MONATIN SWEETENED BEVERAGE” (Cargill, Incorporated, priority 2009, published 2012).

Experiment: Total indole concentrations following sunlight exposure
Format: physicochemical
Method: Synthetic R,R-monatin containing approximately 95.4% R,R-monatin monopotassium salt (dry basis) was obtained from CSIR (Modderfontein, South Africa). About 39 mg/L of this monatin was placed in a buffered solution at a pH of about 2.8-3.0 comprising 9 mM citric acid-trisodium citrate in high purity water and preserved with about 150 mg/L sodium benzoate. To some samples 200 ppm SANMELIN™ AO-3000 enzymatically modified isoquercitrin (EMIQ) (San-Ei Gen F.F.I.—Osaka, Japan) was added. Dissolved O2 levels were either increased by bubbling compressed air or reduced by bubbling N2 (99.9% purity) through these samples until the target O2 concentrations were achieved. Dissolved O2 levels were determined at 20° C. using a FOXY fluorescence quenching O2 analyzer from Ocean Optics (Dunedin, Fla.). Samples were stored in clear, glass ampules (˜10 mL) after O2 adjustment and heat-sealed to create an air-tight enclosure. The samples were then either stored in the dark, or exposed to sunlight. The exposure to sunlight is a much harsher environment for photosensitive compounds than the fluorescent light box because sunlight is many times brighter (˜100,000 Lux vs. ˜2200 Lux) and produces higher-energy, UV radiation. In order to test samples under these alternate conditions, samples were stored outside and exposed to sunlight where temperatures varied from about 5 to about 30 degrees C. and light intensity ranged from 0 at night to about 100,000 Lux on a clear day. Duplicate samples were analyzed weekly for total indole concentrations via the following method.
Total indole (monatin and its intramolecular rearrangement products, monatin lactone and monatin lactam) concentrations were quantified by reversed phase HPLC at 40° C. using an Agilent Zorbax Eclipse C18 column with UV detection at 280 nm by PDA. The compounds were eluted by a gradient mobile phase consisting of (A) 1:1 methanol and acetonitrile (v:v) with 0.3% formic acid and 10 mM ammonium formate and (B) 0.3% formic acid in water with 10 mM ammonium formate. The integrated peak areas for the three (3) compounds were expressed in terms of monatin concentration (mg/L) based on a standard curve prepared for monatin. Thus, the extinction coefficient for monatin was applied to estimate concentrations of monatin lactone and monatin lactam since standards for these compounds were unavailable.

SMILES: NC(CC(O)(Cc1c[nH]c2ccccc12)C(=O)O)C(=O)O (centres unmarked) [R,R-monatin, 2-hydroxy-2-(indol-3-ylmethyl)-4-aminoglutaric acid]
- Total Indole Concentration (8.3 mg/L O2, 0 ppm EMIQ, Dark, 0 d): 38.5 mg/L
- Total Indole Concentration (8.3 mg/L O2, 0 ppm EMIQ, Dark, 7 d): 39.4 mg/L
- Total Indole Concentration (8.3 mg/L O2, 0 ppm EMIQ, Dark, 14 d): 38.0 mg/L
- Total Indole Concentration (8.3 mg/L O2, 0 ppm EMIQ, Dark, 21 d): 36.9 mg/L
- Total Indole Concentration (8.3 mg/L O2, 0 ppm EMIQ, Dark, 28 d): 39.1 mg/L
- Total Indole Concentration (8.3 mg/L O2, 0 ppm EMIQ, Light (sunlight), 0 d): 38.5 mg/L
- Total Indole Concentration (8.3 mg/L O2, 0 ppm EMIQ, Light (sunlight), 7 d): 0.0 mg/L
- Total Indole Concentration (8.3 mg/L O2, 0 ppm EMIQ, Light (sunlight), 14 d): 0.0 mg/L
- Total Indole Concentration (8.3 mg/L O2, 0 ppm EMIQ, Light (sunlight), 21 d): 0.0 mg/L
- Total Indole Concentration (8.3 mg/L O2, 0 ppm EMIQ, Light (sunlight), 28 d): 0.0 mg/L
- Total Indole Concentration (<0.5 mg/L O2, 0 ppm EMIQ, Light (sunlight), 0 d): 38.5 mg/L
- Total Indole Concentration (<0.5 mg/L O2, 0 ppm EMIQ, Light (sunlight), 7 d): 39.7 mg/L
- Total Indole Concentration (<0.5 mg/L O2, 0 ppm EMIQ, Light (sunlight), 14 d): 34.4 mg/L
- Total Indole Concentration (<0.5 mg/L O2, 0 ppm EMIQ, Light (sunlight), 21 d): 32.0 mg/L
- Total Indole Concentration (<0.5 mg/L O2, 0 ppm EMIQ, Light (sunlight), 28 d): 30.6 mg/L
- Total Indole Concentration (<0.5 mg/L O2, 200 ppm EMIQ, Light (sunlight), 0 d): 38.5 mg/L
- Total Indole Concentration (<0.5 mg/L O2, 200 ppm EMIQ, Light (sunlight), 7 d): 36.0 mg/L
- Total Indole Concentration (<0.5 mg/L O2, 200 ppm EMIQ, Light (sunlight), 14 d): 38.4 mg/L
- Total Indole Concentration (<0.5 mg/L O2, 200 ppm EMIQ, Light (sunlight), 21 d): 32.8 mg/L
- Total Indole Concentration (<0.5 mg/L O2, 200 ppm EMIQ, Light (sunlight), 28 d): 36.7 mg/L
